The assay addresses SUMO-specific protease 1 (SENP1) (Homo sapiens, UniProt Q9P0U3).

Data on one compound can be found in publication PMC5312290, “Momordin Ic, a new natural SENP1 inhibitor, inhibits prostate cancer cell proliferation” (Oncotarget, 2016).

Chain of SUMO-specific protease 1 (SENP1) (Q9P0U3 419-644 limits assumed): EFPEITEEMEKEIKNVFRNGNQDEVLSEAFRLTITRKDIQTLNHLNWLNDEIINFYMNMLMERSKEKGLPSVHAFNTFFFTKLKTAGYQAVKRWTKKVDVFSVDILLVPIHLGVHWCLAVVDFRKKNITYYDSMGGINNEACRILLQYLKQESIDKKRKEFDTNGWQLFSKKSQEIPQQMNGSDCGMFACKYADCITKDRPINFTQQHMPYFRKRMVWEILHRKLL

Take `CC1(C)CC[C@]2(C(=O)O)CC[C@]3(C)C(=CC[C@@H]4[C@@]5(C)CC[C@H](O[C@@H]6O[C@H](C(=O)O)[C@@H](O)[C@H](O[C@@H]7OC[C@@H](O)[C@H](O)[C@H]7O)[C@H]6O)C(C)(C)[C@@H]5CC[C@]43C)[C@@H]2C1` [Mc, Momordin Ιc]: the IC50 turned out to be 15.4 µM.
